Reference: ChEMBL document CHEMBL1201862, “PubChem BioAssay data set” (2004)
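Test compounds were applied to cells in 96-well plates for 48 hours at 5 doses. The concentration for 50% growth inhibition is given as GI50.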 Active and inactive are the calls of the source. Cut-off read from the data, not from the text of the source: active = GI50 up to about 1.1 µM and inactive = higher.

Legend:
Assay in all cases: inhibition of tumour cell growth, NCI panel, 48 h
BT-549 = system: BT-549
MDA-N = system: MDA-N
DLD-1 = system: DLD-1
DMS-273 = system: DMS-273
HOP-18 = system: HOP-18
KM-20L2 = system: KM-20L2
M19-MEL = system: M19-MEL
DMS-114 = system: DMS-114

SMILES	GI50 (BT-549)	GI50 (MDA-N)	GI50 (DLD-1)	GI50 (DMS-273)	GI50 (HOP-18)	GI50 (KM-20L2)	GI50 (M19-MEL)	GI50 (DMS-114)
CCCCc1ccc(-n2sc3ncc([N+](=O)[O-])cc3c2=O)cc1	17.2 µM (inactive)	14.8 µM (inactive)	–	–	–	–	–	–
COc1ccc(-n2c(N)c(C#N)[nH]c2=O)cc1	–	> 10 µM (inactive)	–	–	–	–	–	–
COc1ccc2c(C)c(Oc3c(Cl)c(Cl)c(O)c(C#N)c3C#N)oc2c1	> 100 µM (inactive)	> 100 µM (inactive)	–	–	–	–	–	–
Cc1cn(CC2=NCCN2)c(=O)[nH]c1=O	> 100 µM (inactive)	> 100 µM (inactive)	–	–	–	–	–	–
COC12C=C(C)C(CC1)CC2C(=O)O (stereo not given)	–	–	> 100 µM (inactive)	> 100 µM (inactive)	> 100 µM (inactive)	> 100 µM (inactive)	> 100 µM (inactive)	–
C[C@@]1(CO)[C@H](O)CC[C@@]2(C)[C@H]1CC[C@H]1C[C@@H]3C[C@@]12CC[C@@]3(O)COC(=O)CN	42.3 µM (inactive)	16.9 µM (inactive)	–	0.486 µM (active)	> 76 µM (inactive)	–	–	–
N#C/N=C1/c2ccccc2/C(=N/C#N)c2cc(CO)ccc21	18 µM (inactive)	36.6 µM (inactive)	–	–	–	–	–	–
CCN(CC)C(=O)N1CN(c2ccccc2)C2(CCN(CCCC3(c4ccc(F)cc4)OCCO3)CC2)C1=O	12.5 µM (inactive)	19.1 µM (inactive)	–	–	–	–	–	–
CCOC(=O)C1=C(C)N(Cc2ccc(Cl)cc2Cl)C2(O)C=CC(=O)C3C(=O)N(c4ccccc4)C(=O)C132 (stereo not given)	1.3 µM (inactive)	–	–	–	–	–	–	–
Cc1cn(C2CC(O)C(Cn3nncc3Cn3ccc(=O)[nH]c3=O)O2)c(=O)[nH]c1=O (stereo not given)	> 100 µM (inactive)	> 100 µM (inactive)	–	–	–	–	–	–
CNc1ccc(Cl)cc1C(=O)N1CCC[C@H]1CO	> 100 µM (inactive)	> 100 µM (inactive)	–	–	–	–	–	–
N#Cc1nc(-c2ccco2)oc1N	> 10 µM (inactive)	> 10 µM (inactive)	–	–	–	–	–	–
C=CCSc1ncnc2c1ncn2C1OC(CO)C(O)C1O (stereo not given)	–	–	2.75 µM (inactive)	11.7 µM (inactive)	> 100 µM (inactive)	55.7 µM (inactive)	> 100 µM (inactive)	11.4 µM (inactive)
CN(C(=O)c1ccc(Cl)cc1)C(=S)N1CCN(c2ccccc2)CC1	> 100 µM (inactive)	> 100 µM (inactive)	–	–	–	–	–	–
CSc1c(C(N)=S)c(N)nn1-c1ccccc1	> 100 µM (inactive)	–	–	–	–	–	–	–
CN1CCc2c1nc(-c1ccc(Cl)cc1)c1c2N(C)CC1	–	–	7.66 µM (inactive)	14 µM (inactive)	< 0.01 µM (active)	0.514 µM (active)	9.14 µM (inactive)	10.8 µM (inactive)

SMILES	GI50 (BT-549)	GI50 (MDA-N)	GI50 (DLD-1)	GI50 (DMS-273)	GI50 (HOP-18)	GI50 (KM-20L2)	GI50 (M19-MEL)	GI50 (DMS-114)
O=c1[nH]c(=O)n(C2OC(CO)C(O)C2O)cc1OCCc1ccccc1 (stereo not given)	–	> 100 µM (inactive)	–	–	–	–	–	–
COc1ccc(C2C(C(=O)c3ccccc3)=C(O)C(O)(CC(=O)c3ccccc3)N2c2ccc(OC)cc2)cc1 (stereo not given)	7.55 µM (inactive)	20.9 µM (inactive)	–	–	–	–	–	–
CCN(CC)c1ncnc2c1ncn2CCNC(CO)(CO)CO	> 100 µM (inactive)	> 100 µM (inactive)	–	–	–	–	–	–
CN1C(=O)c2ccccc2OC12C=Cc1ccc(O)cc1O2 (stereo not given)	30.8 µM (inactive)	31 µM (inactive)	–	–	–	–	–	–
CC(C)(C)[Si](C)(C)OC1C(=O)C[C@H]2CCCC[C@@H]12 (stereo not given in full)	–	–	> 100 µM (inactive)	> 100 µM (inactive)	> 100 µM (inactive)	> 100 µM (inactive)	87.9 µM (inactive)	> 100 µM (inactive)
CCCSc1ccc2[nH]c(N3C(=O)/C(=C/c4ccco4)N=C3c3ccccc3)cc2c1	32.7 µM (inactive)	6 µM (inactive)	–	–	–	–	–	–
C=C1C(=O)OC2C[C@H](C)C3CC(=O)C(C)=C3CC12 (stereo not given in full)	–	–	7.38 µM (inactive)	17.1 µM (inactive)	–	14.8 µM (inactive)	13.2 µM (inactive)	15 µM (inactive)
CCCCCC/C=C1\CCC(CN2CCOCC2)C1=O (stereo not given)	–	–	10.5 µM (inactive)	15.9 µM (inactive)	0.807 µM (active)	20.2 µM (inactive)	–	17.3 µM (inactive)
CCCCCCCC(=O)NS(=O)(=O)c1ccccc1	> 100 µM (inactive)	> 100 µM (inactive)	–	–	–	–	–	–
Oc1cccc2ccc(Br)nc12	> 100 µM (inactive)	> 100 µM (inactive)	–	–	–	–	–	–
Nc1nc2[nH]cnc2c(=O)[nH]1	–	–	> 100 µM (inactive)	> 100 µM (inactive)	> 100 µM (inactive)	> 100 µM (inactive)	> 100 µM (inactive)	–
O/N=N/c1ccccn1.OCC1OC2OC3C(CO)OC(OC4C(CO)OC(OC5C(CO)OC(OC6C(CO)OC(OC7C(CO)OC(OC1C(O)C2O)C(O)C7O)C(O)C6O)C(O)C5O)C(O)C4O)C(O)C3O (stereo not given)	30.8 µM (inactive)	19.9 µM (inactive)	–	–	–	–	–	–
COc1cccc2c1C(=O)c1c(O)c3c(c(O)c1C2=O)C[C@@](O)(C(=O)CO)CC3OC1CC(NCCOCC(OC(C)=O)OC(C)=O)C(O)C(C)O1 (stereo not given in full)	–	–	0.01 µM (active)	–	< 0.01 µM (active)	< 0.01 µM (active)	< 0.01 µM (active)	< 0.01 µM (active)
O=C(NN1C(=O)C(Cl)C1c1c(O)ccc2ccccc12)c1ccccc1O (stereo not given)	–	–	> 100 µM (inactive)	> 100 µM (inactive)	> 100 µM (inactive)	–	> 100 µM (inactive)	> 100 µM (inactive)
CCN(CC)C(=S)SC [METHYLDIETHYL CARBAMODITHIOATE]	> 100 µM (inactive)	> 100 µM (inactive)	–	–	–	–	–	–
